Test results from paper PMC11123841, “Discovery and Synthesis of Hydroxy-L-Proline Blockers of the Neutral Amino Acid Transporters SLC1A4 (ASCT1) and SLC1A5 (ASCT2)” (Molecules, 2024).

Legend:
Type in all cases: cell-based
SLC1A4 = biological target: T1, SLC1A4 (Homo sapiens, UniProt P43007); test: TEVC block of anion leak conductance in oocytes; settings: SLC1A4; compared with ligands of refs 43, 65
T1 construct: expressed in transfected cells; host or cells: Xenopus laevis oocytes (cRNA injection)
T1 sequence (P43007 1-532): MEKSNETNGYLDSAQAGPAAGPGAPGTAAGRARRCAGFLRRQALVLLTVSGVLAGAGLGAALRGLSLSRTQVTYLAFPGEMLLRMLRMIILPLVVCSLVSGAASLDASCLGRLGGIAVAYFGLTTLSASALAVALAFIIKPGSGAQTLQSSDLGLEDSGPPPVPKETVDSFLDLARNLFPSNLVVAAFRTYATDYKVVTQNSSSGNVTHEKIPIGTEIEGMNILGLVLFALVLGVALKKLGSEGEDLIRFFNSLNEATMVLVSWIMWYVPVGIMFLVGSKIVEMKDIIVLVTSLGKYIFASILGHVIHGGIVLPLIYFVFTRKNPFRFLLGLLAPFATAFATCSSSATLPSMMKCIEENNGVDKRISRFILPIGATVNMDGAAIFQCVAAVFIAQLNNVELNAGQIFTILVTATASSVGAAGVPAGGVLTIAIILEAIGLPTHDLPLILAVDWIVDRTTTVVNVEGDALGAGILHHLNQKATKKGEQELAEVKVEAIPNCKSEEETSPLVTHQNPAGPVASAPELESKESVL
Text: (§1) The currents induced by substrates and blocked by hydroxyproline analogs shared a reversal potential shown in the current/voltage relationship consistent with the conductance originating from the same ion pore (Figure 3, inset). […] The observed dose–response relationships are independent of competing substrates, and thus provide a direct measure of the equilibrium inhibition constant (Ki). Each synthetic hydroxyproline analog was functionally assessed for its capacity to inhibit SLC1A4 and SLC1A5 leak currents with affinities reported in Table 1 as determined or approximated Ki.
(§2) Two-electrode voltage clamp (TEVC) transporter currents were recorded with a GeneClamp 500 amplifier and Digidata 1320A analog–digital interface (Molecular Devices, San Jose, CA, USA). Electrodes (0.2–1.0 MΩ) were filled with 3M KCl and the recording chamber was grounded with an agar bridge. Data were acquired with Axograph (v1.7.6) and LabChart (v7) and analyzed with Kaleidagraph software (v4.1) (Synergy, Reading, PA, USA). Uncoupled anion currents associated with the transport of substrate and block of SLC1A4 or SLC1A5 mediated leak conductance were recorded in the presence of Ringer with 50% substitution of NaCl by NaSCN to amplify the non-transported anion conductance.
(§3) Figure 3 AHPCs block a leak current in SLC1A4 and SLC1A5. […] Inset (A): The current and voltage relationship for SLC1A4 currents activated by Ala or blocked by 14b are determined by subtracting voltage jumps in buffer.

mSLC1A5 = biological target: T2, mSLC1A5 (Mus musculus, UniProt P51912); test: TEVC block of anion leak conductance in oocytes; settings: SLC1A5; compared with ligands of refs 43, 65
T2 construct: expressed in transfected cells; host or cells: Xenopus laevis oocytes (cRNA injection)
T2 sequence (P51912 1-553): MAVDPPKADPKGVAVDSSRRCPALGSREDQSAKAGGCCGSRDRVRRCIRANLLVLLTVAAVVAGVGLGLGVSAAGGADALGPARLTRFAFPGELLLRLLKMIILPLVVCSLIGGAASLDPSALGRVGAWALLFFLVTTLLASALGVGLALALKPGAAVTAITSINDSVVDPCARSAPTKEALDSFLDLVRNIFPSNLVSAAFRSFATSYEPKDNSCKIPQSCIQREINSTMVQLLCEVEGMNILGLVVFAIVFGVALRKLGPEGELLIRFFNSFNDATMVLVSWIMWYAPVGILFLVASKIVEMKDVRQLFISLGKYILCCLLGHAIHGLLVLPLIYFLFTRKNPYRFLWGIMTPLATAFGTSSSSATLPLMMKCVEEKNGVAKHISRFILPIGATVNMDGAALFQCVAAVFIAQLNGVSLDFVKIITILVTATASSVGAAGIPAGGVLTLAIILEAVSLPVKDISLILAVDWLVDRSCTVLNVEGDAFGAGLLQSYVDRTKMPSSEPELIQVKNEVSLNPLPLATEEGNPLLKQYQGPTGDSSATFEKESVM
Text: as §1, §2, §3

SLC1A2 (EAAT2) = biological target: T3, SLC1A2 (EAAT2) (Homo sapiens, UniProt P43004); test: TEVC in oocytes expressing glutamate transporter; settings: 10 µM L-glu current, read-out: IC50, block of glutamate current
T3 construct: expressed in transfected cells; host or cells: Xenopus laevis oocytes (cRNA injection)
Protocol: BPOHP activity was evaluated against the glutamate transporters paralogs within the SLC1A gene family (SLC1A 1–3) as well as at neutral amino acid transporters that share common ligand substrates with the SLC1 family including SLC38A1,2, and 4 (ATA1, ATA2, ATA3) and heteromeric transporters SLC7A10+SLC3A2 (asc-1/4f2). […] Finally, radiolabeled [^3H]D-serine uptake was used to assess the electroneutral SLC7A10+SLC3A2 transporter, in which 10 µM BPOHP had no effect (Figure S3).
Uptake was halted by washing 3 times with 4 °C ND96 buffer. Oocytes were then lysed in 0.1% Triton X-100, and radioactivity was counted via liquid scintillation. Dose response curves were generated by fitting fractional inhibition (I) to the expression I = Imax × [inhibitor]/([inhibitor] + IC50).
as §2, with “Electrodes (0.2–1.0 MΩ) were filled with 3M KCl and the recording chamber was grounded with an agar bridge.” left out, “conductance. […]” for “conductance.”

T3 sequence (P43004 whole entry): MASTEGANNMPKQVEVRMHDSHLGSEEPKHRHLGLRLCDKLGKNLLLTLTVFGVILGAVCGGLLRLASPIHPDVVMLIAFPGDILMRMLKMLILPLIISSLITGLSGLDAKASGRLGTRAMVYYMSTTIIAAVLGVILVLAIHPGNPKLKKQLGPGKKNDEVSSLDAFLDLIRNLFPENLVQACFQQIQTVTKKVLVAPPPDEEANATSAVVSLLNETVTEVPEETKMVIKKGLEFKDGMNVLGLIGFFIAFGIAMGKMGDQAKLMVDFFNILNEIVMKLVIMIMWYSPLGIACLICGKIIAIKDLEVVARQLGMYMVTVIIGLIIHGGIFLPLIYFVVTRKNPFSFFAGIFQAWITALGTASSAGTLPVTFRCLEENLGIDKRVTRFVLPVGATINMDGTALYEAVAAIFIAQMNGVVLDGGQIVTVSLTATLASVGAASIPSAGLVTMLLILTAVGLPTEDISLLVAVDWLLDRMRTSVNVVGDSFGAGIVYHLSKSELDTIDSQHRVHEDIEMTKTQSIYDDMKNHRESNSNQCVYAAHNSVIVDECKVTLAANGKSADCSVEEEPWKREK

fold improvement in affinity over ligands previously reported (SLC1A4): 7–25 fold | fold improvement in affinity over ligands previously reported (mSLC1A5): 7–25 fold | IC50 (SLC1A2 (EAAT2)): 1200 nM
Structure (SMILES): O=C(O)[C@H]1NC[C@@H](OCc2ccc(-c3ccccc3)cc2)[C@@H]1O [14e]
